Source: PMC9312238, “Novel Organoselenium Redox Modulators with Potential Anticancer, Antimicrobial, and Antioxidant Activities” (Antioxidants, 2022)
Converted amounts (≈) assume the structure as drawn. Where two headings read alike, the source gives them in different places.

What was measured:
Candida albicans = assay: MIC by microdilution, C. albicans; assay type: cell-based; conditions: read-out: MIC (μM) C. albicans
Protocol: The antimicrobial activities of the OSe compounds were evaluated against C. albicans yeast, as well as E. coli and S. bacteria, employing the agar well diffusion assay. Furthermore, the MICs (in µM) were determined by the microdilution method according to the reported protocol. More details are in the Supporting Information. […]
1.1.1. The antimicrobial activity
The antimicrobial activities of the OSe compounds were evaluated against C. albicans yeast as well as E. coli gram-negative and S. aureus gram-positive bacteria employing the agar well diffusion assay. Briefly, a concentration of 1 mM was prepared for each compound by dissolving in DMSO. Paper discs of standard size […] were steri-lized in an autoclave and soaked in 20 µL of the test compounds, and placed in the Petri dishes, which in turn contain a nutrient media (agar 20 g, peptone 5 g, and beef extract 3 g) seeded with the dedicated strain. Incubation lasted for 24 h at 36
Furthermore, the MICs (in µM) were determined by the microdilution method according to the reported protocol. […]
Inhibition%= (Ablank-Asample)/(Ablank)*100. (1)

Escherichia coli = assay: MIC by microdilution, E. coli; assay type: cell-based
Protocol: The antimicrobial activities of the OSe compounds were evaluated against C. albicans yeast, as well as E. coli and S. bacteria, employing the agar well diffusion assay. Furthermore, the MICs (in µM) were determined by the microdilution method according to the reported protocol. More details are in the Supporting Information.
1.1. The biological assays
1.1.1. The anticancer activity
The breast adenocarcinoma (MCF-7), Hepatocellular carcinoma (HEPG-2), and nor-mal fibroblast (WI-38) cells were obtained from ATCC via Holding company for biological products and vaccines (VACSERA), Cairo, Egypt. The reagents RPMI-1640 medium, MTT, DMSO, and fetal bovine serum was obtained from Sigma Aldrich. Dulbecco’s modified Eagle’s medium was used as the culture medium for the cells, and the cytotoxicity was evaluated using the reported MTT assay. […]
Cell lines were cultured in RPMI-1640 medium with 10% fetal bovine serum. […] The colorimetric assay is measured and recorded at an absorbance of 570 nm using a plate reader (EXL 800, USA). The percentage of the relative cell viability was calculated as (A570 of treated samples/A570 of the untreated sample) X 100. […]
The antimicrobial activities of the OSe compounds were evaluated against C. albicans yeast as well as E. coli gram-negative and S. aureus gram-positive bacteria employing the agar well diffusion assay. […]

| Compound | MIC (Candida albicans; microdilution) | MIC (μM) E. coli (Escherichia coli; microdilution) | MIC (Candida albicans; Candida albicans) | MIC (Escherichia coli; Escherichia coli, read-out: MIC (μM) E. coli) |
| --- | --- | --- | --- | --- |
| 2-((4-(2-(3-hydroxynaphthalen-1(4H)-ylidene)hydrazinyl)phenyl)selanyl)-N-phenylacetamide [Compound 9] | 2 µM | 0.5 µM |  |  |
| Nc1ccc([Se]CC(=O)N[C@@H](Cc2c[nH]c3ccccc23)C(=O)O)cc1 [Compound 6, (2-((4-aminophenyl)selanyl)acetyl)tryptophan] |  |  | 8 µM (≈ 3.33 µg/mL) | 1 µM (≈ 0.416 µg/mL) |
